ChEMBL document CHEMBL4808200, “Identification of a Series of N-Methylpyridine-2-carboxamides as Potent and Selective Inhibitors of the Second Bromodomain (BD2) of the Bromo and Extra Terminal Domain (BET) Proteins” (J Med Chem, 2021)
In brackets after ≈: the same amount, converted by molar mass.

Experiments:
[1] = physchem; settings: buffer, pH 7.4
[2] = Solubility of the compound in pH 6.5 FaSSIF at […] measured after 16 hrs by HPLC analysis; type: physicochemical
[3] = Permeability of the compound at pH 7.4 by artificial membrane permeability assay; type: ADME; settings: PAMPA, read-out: permeability

Structure (SMILES)	chromatographic logD [1]	solubility at 16 h [2]	Papp [3]
CNC(=O)c1cc(C(=O)NC2CC2)cn([C@H](C)c2ccccc2)c1=O	3.5		
CNC(=O)c1cc(C(=O)NC2CC2)cn(Cc2cccc3[nH]ccc23)c1=O		20 µg/mL (≈ 54.9 µM)	17.8 ×10⁻⁶ cm/s
CC(=O)Nc1ccc(C(=O)NCCc2cnc[nH]2)cc1OCc1ccccc1	2.2		
CNC(=O)c1cc(C(=O)N[C@H]2C[C@@H]2C)cc([C@@H](CC#N)c2ccccc2)n1	4		35.3 ×10⁻⁶ cm/s
CNC(=O)c1cc(C(=O)N[C@H]2C[C@@H]2C)cc(C(OC)c2ccccc2)n1 (stereo partly specified)	4.3		56 ×10⁻⁶ cm/s
CNC(=O)c1cc(C(=O)N[C@H]2[C@@H]3C[C@H](O)C[C@@H]32)cc(Cc2ccccc2)n1	3.5	43 µg/mL (≈ 118 µM)	15 ×10⁻⁶ cm/s
CNC(=O)c1cc(C(N)=O)cc(Cc2ccccc2)n1	2.7		21 ×10⁻⁶ cm/s
CNC(=O)c1cc(C(=O)NC(C)C)cc(Cc2ccccc2)n1		101 µg/mL (≈ 324 µM)	57 ×10⁻⁶ cm/s
CNC(=O)c1cc(C(=O)N[C@H]2[C@@H]3C[C@@H](O)C[C@@H]32)cc([C@@H](C)c2ccccc2)n1	3.6	744 µg/mL (≈ 1960 µM)	13 ×10⁻⁶ cm/s
CNC(=O)c1cc(C(=O)O)cc(Cc2ccccc2)n1		> 1000 µg/mL	
CNC(=O)c1cc(C(=O)NC2CC2)cn([C@@H](C)c2ccccc2)c1=O	3.3	598 µg/mL (≈ 1760 µM)	
CNC(=O)c1cc(C(=O)N[C@H]2[C@@H]3C[C@H](O)C[C@@H]32)cc([C@@H](C)c2ccccc2)n1	4.1	572 µg/mL (≈ 1510 µM)	28 ×10⁻⁶ cm/s
CNC(=O)c1cccc(Cc2ccccc2)n1	4.3	258 µg/mL (≈ 1140 µM)	77 ×10⁻⁶ cm/s
CCNC(=O)c1cc(Cc2ccccc2)nc(C(=O)NC)c1	3.7	310 µg/mL (≈ 1040 µM)	
CNC(=O)c1cc(C(=O)N[C@H]2[C@@H]3C[C@@H](O)C[C@@H]32)cc(Cc2ccccc2)n1	3.1	143 µg/mL (≈ 391 µM)	7.1 ×10⁻⁶ cm/s
CNC(=O)c1cc(C(=O)N(C)C)cc(Cc2ccccc2)n1	3.3		33 ×10⁻⁶ cm/s
CC(=O)Nc1c(F)cc(C(=O)N[C@H]2CC[C@H](O)CC2)cc1O[C@@H](C)c1ccccc1 [GSK046]	2.8		

The next lines start with the values.

chromatographic logD [1]	solubility at 16 h [2]	Papp [3]	Structure (SMILES)
4.6	94 µg/mL (≈ 291 µM)	63 ×10⁻⁶ cm/s	CNC(=O)c1cc(C(=O)N[C@H]2C[C@@H]2C)cc(Cc2ccccc2)n1
3.1	473 µg/mL (≈ 1290 µM)	8.6 ×10⁻⁶ cm/s	CNC(=O)c1cc(C(=O)N[C@H]2CC[C@H](O)CC2)cc(Cc2ccccc2)n1
4.4	123 µg/mL (≈ 380 µM)	55.5 ×10⁻⁶ cm/s	CNC(=O)c1cc(C(=O)NC2CC2)cc([C@@H](C)c2ccccc2)n1
3.7	173 µg/mL (≈ 489 µM)	22 ×10⁻⁶ cm/s	CNC(=O)c1cc(C(=O)NC2CCOCC2)cc(Cc2ccccc2)n1
3.5		30.5 ×10⁻⁶ cm/s	CNC(=O)c1cc(C(=O)NC2CC2)cc(Cc2cccc3[nH]ccc23)n1
4.3	182 µg/mL (≈ 563 µM)	49 ×10⁻⁶ cm/s	CNC(=O)c1cc(C(=O)NC2CC2)cc([C@H](C)c2ccccc2)n1
2.9		20 ×10⁻⁶ cm/s	CNC(=O)c1cc(C(=O)NC2CC2)cc(Cc2cccc3cn[nH]c23)n1
3.1	> 1000 µg/mL	20 ×10⁻⁶ cm/s	CNC(=O)c1cc(Cc2ccccc2)nc(C(=O)NC)c1
3.1	73 µg/mL (≈ 224 µM)	16 ×10⁻⁶ cm/s	CNC(=O)c1cc(C(=O)NC2COC2)cc(Cc2ccccc2)n1
2.4	> 1000 µg/mL	7.15 ×10⁻⁶ cm/s	CNC(=O)c1cc(C(=O)NC2CC2)cc([C@@H](O)c2ccccc2)n1
2.7	194 µg/mL (≈ 572 µM)	7.3 ×10⁻⁶ cm/s	CNC(=O)c1cc(C(=O)N[C@H]2C[C@H](O)C2)cc(Cc2ccccc2)n1
